Blank lines part the entries; values can stand above or below the molecule they belong to.
Assays:
[1] = target: Voltage-dependent L-type calcium channel subunit alpha-1C (Homo sapiens, UniProt Q13936); type: functional, cell-based
[2] = target: Neurotensin receptor type 1 (Homo sapiens, UniProt P30989)
[3] = target: T1, Neuropeptide Y receptor type 2 (Homo sapiens, UniProt P49146)
T1 sequence (P49146 whole entry): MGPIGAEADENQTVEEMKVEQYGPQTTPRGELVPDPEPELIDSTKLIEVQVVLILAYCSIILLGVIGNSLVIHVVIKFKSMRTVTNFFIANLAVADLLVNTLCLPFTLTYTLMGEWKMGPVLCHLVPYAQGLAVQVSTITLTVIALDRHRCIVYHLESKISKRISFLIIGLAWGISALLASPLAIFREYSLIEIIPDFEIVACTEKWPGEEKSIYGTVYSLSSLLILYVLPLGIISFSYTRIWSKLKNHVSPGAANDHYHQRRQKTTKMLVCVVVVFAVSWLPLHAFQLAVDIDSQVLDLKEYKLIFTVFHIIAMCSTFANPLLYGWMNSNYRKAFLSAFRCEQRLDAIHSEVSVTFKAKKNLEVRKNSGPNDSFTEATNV

Glucocorticoid receptor = target: T2, Glucocorticoid receptor (Homo sapiens, UniProt P04150); type: functional
T2 sequence (P04150 whole entry): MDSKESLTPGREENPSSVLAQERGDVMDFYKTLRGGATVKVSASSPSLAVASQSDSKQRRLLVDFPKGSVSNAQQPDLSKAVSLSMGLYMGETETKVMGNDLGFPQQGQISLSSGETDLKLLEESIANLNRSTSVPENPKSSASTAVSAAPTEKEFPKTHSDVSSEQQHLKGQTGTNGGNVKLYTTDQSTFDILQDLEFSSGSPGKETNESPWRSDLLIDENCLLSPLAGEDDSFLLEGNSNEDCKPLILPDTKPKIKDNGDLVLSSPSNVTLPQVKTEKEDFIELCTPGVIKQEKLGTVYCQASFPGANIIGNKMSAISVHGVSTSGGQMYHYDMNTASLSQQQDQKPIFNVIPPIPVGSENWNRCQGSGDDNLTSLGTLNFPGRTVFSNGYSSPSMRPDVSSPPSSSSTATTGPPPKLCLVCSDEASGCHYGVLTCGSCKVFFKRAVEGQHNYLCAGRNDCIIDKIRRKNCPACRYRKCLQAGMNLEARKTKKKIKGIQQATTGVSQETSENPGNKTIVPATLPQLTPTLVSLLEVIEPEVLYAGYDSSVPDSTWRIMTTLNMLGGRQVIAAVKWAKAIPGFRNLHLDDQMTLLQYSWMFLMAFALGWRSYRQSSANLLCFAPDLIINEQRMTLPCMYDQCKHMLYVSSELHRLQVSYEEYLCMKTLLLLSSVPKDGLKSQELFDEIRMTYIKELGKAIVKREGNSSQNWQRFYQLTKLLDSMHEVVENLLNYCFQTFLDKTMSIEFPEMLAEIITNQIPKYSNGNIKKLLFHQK

Androgen receptor = target: T3, Androgen receptor (Rattus norvegicus, UniProt P15207)
T3 sequence (P15207 whole entry): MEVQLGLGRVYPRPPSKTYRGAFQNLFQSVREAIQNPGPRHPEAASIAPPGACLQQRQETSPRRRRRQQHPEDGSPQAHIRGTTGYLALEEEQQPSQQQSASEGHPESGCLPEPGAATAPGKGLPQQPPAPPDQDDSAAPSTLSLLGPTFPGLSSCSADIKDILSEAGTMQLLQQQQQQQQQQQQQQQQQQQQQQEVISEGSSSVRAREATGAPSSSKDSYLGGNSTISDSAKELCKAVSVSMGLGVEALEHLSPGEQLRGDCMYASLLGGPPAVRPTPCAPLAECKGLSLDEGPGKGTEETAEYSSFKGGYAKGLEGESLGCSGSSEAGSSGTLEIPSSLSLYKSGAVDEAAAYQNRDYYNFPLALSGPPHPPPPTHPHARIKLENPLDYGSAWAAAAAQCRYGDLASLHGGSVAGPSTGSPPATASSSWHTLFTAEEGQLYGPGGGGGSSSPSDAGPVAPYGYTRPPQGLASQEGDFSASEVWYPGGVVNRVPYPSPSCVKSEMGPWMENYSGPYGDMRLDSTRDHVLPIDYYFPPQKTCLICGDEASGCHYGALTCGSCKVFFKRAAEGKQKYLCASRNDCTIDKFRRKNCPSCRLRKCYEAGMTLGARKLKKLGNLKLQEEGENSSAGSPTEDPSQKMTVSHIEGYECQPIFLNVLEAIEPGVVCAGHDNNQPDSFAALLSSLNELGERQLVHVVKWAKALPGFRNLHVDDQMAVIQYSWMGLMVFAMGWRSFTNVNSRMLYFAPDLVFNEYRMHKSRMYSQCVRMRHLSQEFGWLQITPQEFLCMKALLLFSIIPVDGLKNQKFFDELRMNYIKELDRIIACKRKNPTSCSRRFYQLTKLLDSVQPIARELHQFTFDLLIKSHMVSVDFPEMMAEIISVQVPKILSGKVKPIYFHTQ
Further: assay procedure not described here.

Chain of Neurotensin receptor type 1 (P30989 whole entry): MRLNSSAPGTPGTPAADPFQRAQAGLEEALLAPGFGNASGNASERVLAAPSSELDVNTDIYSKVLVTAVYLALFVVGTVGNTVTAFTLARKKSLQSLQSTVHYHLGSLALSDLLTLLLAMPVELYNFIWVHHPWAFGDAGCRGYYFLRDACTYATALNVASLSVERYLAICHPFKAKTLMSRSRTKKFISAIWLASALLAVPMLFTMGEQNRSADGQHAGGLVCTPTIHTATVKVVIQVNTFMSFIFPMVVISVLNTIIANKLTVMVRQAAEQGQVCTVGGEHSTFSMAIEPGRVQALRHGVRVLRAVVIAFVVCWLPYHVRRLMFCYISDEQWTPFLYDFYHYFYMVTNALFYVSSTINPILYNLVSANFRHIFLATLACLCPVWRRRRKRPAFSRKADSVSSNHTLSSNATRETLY
Chain of Voltage-dependent L-type calcium channel subunit alpha-1C (Q13936 whole entry): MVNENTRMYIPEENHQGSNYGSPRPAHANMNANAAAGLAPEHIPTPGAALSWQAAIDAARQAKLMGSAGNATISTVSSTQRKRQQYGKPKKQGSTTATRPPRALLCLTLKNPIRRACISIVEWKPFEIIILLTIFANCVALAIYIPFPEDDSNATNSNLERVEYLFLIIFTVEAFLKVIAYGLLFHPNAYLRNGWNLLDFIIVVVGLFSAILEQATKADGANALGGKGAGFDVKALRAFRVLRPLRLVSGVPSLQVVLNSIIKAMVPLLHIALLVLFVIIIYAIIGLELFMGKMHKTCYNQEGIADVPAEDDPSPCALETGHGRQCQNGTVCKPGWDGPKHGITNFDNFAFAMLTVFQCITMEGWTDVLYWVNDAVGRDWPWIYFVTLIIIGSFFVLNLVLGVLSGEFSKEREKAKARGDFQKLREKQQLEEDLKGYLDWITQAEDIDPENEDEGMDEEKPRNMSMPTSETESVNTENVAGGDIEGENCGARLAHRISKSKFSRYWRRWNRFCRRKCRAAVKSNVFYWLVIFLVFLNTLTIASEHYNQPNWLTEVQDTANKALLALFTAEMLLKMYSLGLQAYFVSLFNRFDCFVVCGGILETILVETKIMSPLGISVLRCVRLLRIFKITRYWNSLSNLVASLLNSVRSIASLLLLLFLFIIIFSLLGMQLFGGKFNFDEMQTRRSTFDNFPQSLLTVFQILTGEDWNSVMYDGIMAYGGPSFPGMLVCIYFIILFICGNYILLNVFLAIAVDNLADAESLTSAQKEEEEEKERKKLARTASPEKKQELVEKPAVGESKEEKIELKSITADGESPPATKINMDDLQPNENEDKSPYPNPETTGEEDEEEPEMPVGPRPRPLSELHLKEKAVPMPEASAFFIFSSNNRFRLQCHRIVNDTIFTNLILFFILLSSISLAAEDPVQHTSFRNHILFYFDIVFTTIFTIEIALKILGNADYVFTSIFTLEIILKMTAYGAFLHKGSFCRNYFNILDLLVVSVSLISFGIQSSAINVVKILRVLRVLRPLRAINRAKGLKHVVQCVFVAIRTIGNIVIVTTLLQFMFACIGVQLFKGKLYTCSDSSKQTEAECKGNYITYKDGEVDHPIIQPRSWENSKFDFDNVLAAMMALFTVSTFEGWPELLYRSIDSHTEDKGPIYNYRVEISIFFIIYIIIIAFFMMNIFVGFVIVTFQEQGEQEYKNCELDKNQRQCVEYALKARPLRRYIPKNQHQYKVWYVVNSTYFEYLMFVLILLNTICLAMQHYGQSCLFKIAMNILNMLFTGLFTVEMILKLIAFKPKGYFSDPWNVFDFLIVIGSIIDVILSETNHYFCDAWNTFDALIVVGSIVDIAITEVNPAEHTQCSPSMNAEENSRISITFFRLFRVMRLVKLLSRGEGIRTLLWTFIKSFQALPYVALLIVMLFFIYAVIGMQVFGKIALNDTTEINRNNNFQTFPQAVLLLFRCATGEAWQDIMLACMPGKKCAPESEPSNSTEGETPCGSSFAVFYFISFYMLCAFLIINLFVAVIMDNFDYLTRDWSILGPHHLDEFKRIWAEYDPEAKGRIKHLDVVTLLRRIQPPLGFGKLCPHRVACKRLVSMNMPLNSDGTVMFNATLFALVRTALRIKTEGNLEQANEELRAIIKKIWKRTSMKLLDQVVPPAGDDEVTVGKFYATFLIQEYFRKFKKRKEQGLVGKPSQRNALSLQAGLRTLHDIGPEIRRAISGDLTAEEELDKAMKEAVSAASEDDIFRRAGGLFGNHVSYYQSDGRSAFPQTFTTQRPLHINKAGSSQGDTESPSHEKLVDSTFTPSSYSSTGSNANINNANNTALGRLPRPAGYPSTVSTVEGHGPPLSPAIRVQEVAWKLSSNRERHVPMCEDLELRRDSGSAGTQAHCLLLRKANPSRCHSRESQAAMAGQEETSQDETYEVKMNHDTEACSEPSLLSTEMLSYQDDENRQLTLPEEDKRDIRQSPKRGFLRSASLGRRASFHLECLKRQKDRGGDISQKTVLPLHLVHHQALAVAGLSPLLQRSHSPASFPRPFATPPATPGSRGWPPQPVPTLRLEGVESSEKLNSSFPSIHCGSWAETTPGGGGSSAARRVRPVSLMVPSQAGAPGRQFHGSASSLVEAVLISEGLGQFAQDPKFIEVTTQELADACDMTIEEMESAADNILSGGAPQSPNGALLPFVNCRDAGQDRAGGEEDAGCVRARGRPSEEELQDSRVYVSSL

Compound: C[C@@H]1CN(c2c(F)c(N)c3c(=O)c(C(=O)O)cn(C4CC4)c3c2F)C[C@H](C)N1 [SPARFLOXACIN]
AC50 [1]: > 50 µM

Compound: N=C(N)NC(=O)c1nc(Cl)c(N)nc1N [AMILORIDE]
AC50 [2]: > 30 µM
AC50 [3]: > 30 µM

Compound: COc1cccc2c1C(=O)c1c(O)c3c(c(O)c1C2=O)C[C@@](O)(C(=O)CO)C[C@@H]3O[C@H]1C[C@H](N)[C@H](O)[C@H](C)O1 [DOXORUBICIN]
AC50 (Glucocorticoid receptor): 11 µM
AC50 [1]: > 50 µM

Compound: CCC(=O)c1ccc2c(c1)N(CC(C)N(C)C)c1ccccc1S2 (stereo not given) [PROPIOMAZINE]
AC50 (Androgen receptor): > 30 µM

Compound: CN(C)[C@@H]1C(O)=C(C(=O)NCN2CCCC2)C(=O)[C@@]2(O)C(O)=C3C(=O)c4c(O)cccc4[C@@](C)(O)[C@H]3C[C@@H]12 [ROLITETRACYCLINE]
AC50 (Androgen receptor): 4.35 µM

The remaining lines, values ahead:

AC50 [2]: > 30 µM
AC50 [3]: > 30 µM
Compound: C[C@]12C=CC(=O)C=C1CC[C@@H]1[C@@H]2[C@@H](O)C[C@@]2(C)[C@H]1CC[C@]2(O)C(=O)CO [PREDNISOLONE]

AC50 (Glucocorticoid receptor): 0.0039 µM
Compound: CC1(C)O[C@@H]2C[C@H]3[C@@H]4CCC5=CC(=O)C=C[C@]5(C)[C@@]4(F)[C@@H](O)C[C@]3(C)[C@]2(C(=O)CO)O1 [TRIAMCINOLONE ACETONIDE]
